Experimental data published in PMC11897554, “Pharmacokinetic effect of disease severity and use of extracorporeal membrane oxygenation in critically ill Asian patients receiving vancomycin” (Frontiers in Pharmacology, 2025).

Experiments:
[1] = within 24 h; ref Shimamoto et al., 2021; Le et al., 2013; cited from earlier work
[2] = ref Chung et al., 2021, Matusik et al., 2022, cited from earlier work
Source text: In pediatric patients, vancomycin pharmacokinetics can be highly variable due to age-related differences in drug absorption, distribution, metabolism, and elimination. Population pharmacokinetic models provide quantitative and semi-quantitative frameworks for optimizing dosing regimens. They achieve this by identifying sources of variability, by determining factors that influence the pharmacokinetic behavior of the drug, and quantifying the magnitude of unexplained variability ([Stockmann et al., 2013]).

[3] = Population pharmacokinetic analysis (nonlinear mixed-effects, one-compartment) of vancomycin therapeutic drug monitoring data in critically ill patients
Source text: This retrospective study used medical records of critically ill patients hospitalized in Kaohsiung Veterans General Hospital, Taiwan, from 1 January 2014, to 31 December 2016. The study was approved by the Kaohsiung Veteran General Hospital Institutional Review Board (certificate number VGHKS18-CT9-12). A waiver of informed consent was granted as the data were collected retrospectively from medical records. The identity of the study subjects was masked through the use of a study identifier. Data were de-identified. […] Patients were excluded if vancomycin concentrations in blood could not be detected or if there were incomplete data on the vancomycin regimen. As per the study protocol the blood samples were collected >1 h after the end of dose administration (peak concentration) and within 30 min before the next dose (trough concentration). Trough and peak concentrations obtained after administering at least four equal repeated doses were referred to as the steady-state concentrations.
Data abstracted included height, weight, age, principal diagnosis at admission, whether an open-heart surgery had been performed, serum creatinine concentrations, whether extracorporeal membrane oxygenation (ECMO), and vancomycin dosage, frequency, route, speed, and administration time indications for the use of vancomycin. The estimated glomerular filtration rate (eGFR) was calculated using the bedside Schwartz equation from serum creatinine values ([Schwartz et al., 2009]). There were nine distinct diagnostic categories at admission. To improve simplicity and interpretability, diagnoses were grouped into two major categories based on clinical differences, depending on the severity of the bacterial infection for which vancomycin was used. The first category (severe infections) corresponded to people diagnosed with pneumonia/bacteremia/osteomyelitis/meningitis/deep tissue infection, and the second category (mild infections) included people diagnosed with cellulitis/surgical prevention/neutropenic fever/others.
Vancomycin plasma concentrations were transformed into their natural logarithms. The corresponding concentration versus time plot was placed on a logarithmic scale for all the subjects to address normality. The concentration-time profiles were characterized using nonlinear mixed-effects modeling using Phoenix NLME (Certara Inc. version 8.2). Concentrations below the lower limit of detection (LLOD) were excluded from the analysis. Concentrations below the lower limit of quantitation (LLOQ) were divided by two to obtain an unbiased conservative estimate of the true concentration. One- and two-compartment models with first-order elimination with additive, proportional, and combined error models were considered for the base model. The between-subject variability was normally distributed with a mean equal to 0 and variance equal to ω^2. The allometric scaling exponent for clearance and volume of distribution were fixed at 0.75 and 1, respectively ([Holford, 1996]; [Chung et al., 2021]). The models were run with the FOCE-ELS algorithm and simple run mode. […] Weight was applied a priori to the base model. A sensitivity analysis was performed after the final structural model selection, and the initial estimates were changed to evaluate the robustness of the model.
The clinically relevant categorical covariates that were investigated included the major diagnosis category/infection severity, extracorporeal membrane oxygenation (ECMO) status, and surgery status. Covariate investigation was conducted in stepwise covariate search run mode in Phoenix (Phoenix®, version 8.2, Certara, Princeton, NJ) using stepwise forward inclusion followed by stepwise backward elimination. The models were assessed by a reduction or increase in the objective function value (OFV), equal to −2*log likelihood. During forward selection, any covariate that reduced the OFV by > 3.84 [p < 0.05, χ2 distribution with 1 degree of freedom (df)] was significant.

[4] = calculated from final model, median weight, ηCl = 0
[5] = non-parametric bootstrap of final model, 1,000 datasets
[6] = non-parametric bootstrap, 1,000 datasets

CN[C@H](CC(C)C)C(=O)N[C@H]1C(=O)N[C@@H](CC(N)=O)C(=O)N[C@H]2C(=O)N[C@H]3C(=O)N[C@H](C(=O)N[C@H](C(=O)O)c4cc(O)cc(O)c4-c4cc3ccc4O)[C@H](O)c3ccc(c(Cl)c3)Oc3cc2cc(c3O[C@@H]2O[C@H](CO)[C@@H](O)[C@H](O)[C@H]2O[C@H]2C[C@](C)(N)[C@H](O)[C@H](C)O2)Oc2ccc(cc2Cl)[C@H]1O [vancomycin]
administered dose excreted unchanged [1]: approximately 90%
half-life, HDF ([2]; dialysis mode hemodiafiltration): 2.1 h
half-life, HD ([2]; dialysis mode hemodialysis): 3.5 h
Clearance value, patients with severe infections ([3]; DIAG = 0 (pneumonia/bacteremia/osteomyelitis/meningitis/deep tissue infection), calculated from final model, median weight (12.6 kg), ηCl = 0): 1.03 L/h
Clearance value, patients with mild infections ([3]; DIAG = 1 (cellulitis/surgical prevention/neutropenic fever/others), calculated from final model, median weight (12.6 kg), ηCl = 0): 0.63 L/h
Clearance value, patients without ECMO ([3]; ECMO = 0, calculated from final model for an individual of median weight (12.6 kg), ηCl = 0): 1.03 L/h
% difference (reduction) in clearance, ECMO versus non-ECMO patients [3, 4]: ∼56%
% difference (reduction) in clearance, mild versus severe infections [3, 4]: ∼39%
tvCL, bootstrap median [3, 5]: 1.01 L/h
tvV, bootstrap median [3, 5]: 11.85 L
dCldDiag, bootstrap median [3, 6]: −0.48
dCldECMO, bootstrap median [3, 6]: −0.79
tvV, typical value of volume of distribution, final model estimate ([3]; one-compartment model, first-order elimination, proportional error, Phoenix NLME FOCE-ELS, IV infusion, 90 critically ill Asian patients, 263 samples, typical individual 12.6 kg, allometric exponent 1 fixed): 11.61 L
